Several values for one entry are separate records, joined by “and”; a condition that tells them apart may be missing. Equal values may be shown once. Read-outs that look alike come from different tables or passages of the source.
Key:
[1] = for Raw data: analyte peak area, T=0: 0 min; for Raw data: analyte peak area, T=0 / Raw data: analyte peak area, T=5 / Raw data: analyte peak area, T=10 / Raw data: analyte peak area, T=20 / Raw data: analyte peak area, T=30 / Raw data: analyte peak area, T=60: raw LC-MS area; for Raw data: analyte peak area, T=5: 5 min; for Raw data: analyte peak area, T=10: 10 min; for Raw data: analyte peak area, T=20: 20 min; for Raw data: analyte peak area, T=30: 30 min; for Raw data: analyte peak area, T=60: 60 min
[2] = in vitro; conditions: mouse, microsomes, pH 7.4, % Remaining, T=60 NCF
[3] = in vitro; conditions: liver microsomes; for microsomal CLint at 1 μM / remaining at 5 min, 1 μM: male, CD1, mouse; for remaining at 5 min, 1 μM / remaining at 10 min, 1 µM / remaining at 20 min, 1 µM / remaining at 0.5 h, 1 µM / remaining at 1 h, 1 µM: pH 7.4, % Remaining; for remaining at 5 min, 1 μM: T=5 min; for remaining at 10 min, 1 µM / remaining at 20 min, 1 µM / remaining at 0.5 h, 1 µM / remaining at 1 h, 1 µM: mouse; for remaining at 10 min, 1 µM: T=10 min; for remaining at 20 min, 1 µM: T=20 min; for remaining at 0.5 h, 1 µM: T=30 min, 30 min; for remaining at 1 h, 1 µM: T=60 min, 60 min
[4] = Mouse liver microsome stability in the absence of cofactors (NCF); conditions: mouse liver microsomes, 60 min, no cofactor (NCF), raw LC-MS area
[5] = mouse liver microsomes, replicate 1 (left block)
[6] = mouse liver microsomes, replicate 2 (right block)
[7] = n=1, mouse liver microsomes, 1 µM, n=1
[8] = n=2, mouse liver microsomes, 1 µM, n=2

O=C(O)Cc1ccccc1Nc1c(Cl)cccc1Cl [Diclofenac]
Calculated T-half (min), Average ([1]; mouse liver microsomes (CD1 male), 0.4 mg/ml protein, test conc 1 µM, average of n=1 and n=2): 59.3 min | Calculated T-half (min), n=1 ([1]; mouse liver microsomes (CD1 male), 0.4 mg/ml protein, test conc 1 µM, replicate n=1): 62.0 min and 61.99 min | Calculated T-half (min), n=2 ([1]; mouse liver microsomes (CD1 male), 0.4 mg/ml protein, test conc 1 µM, replicate n=2): 56.6 min and 56.57 min | Raw data: analyte peak area, T=0 [1, 5]: 17523 | Raw data: analyte peak area, T=0 [1, 6]: 19401 | Calculated CLint, app (µl/min/mg), n=1 ([1]; mouse liver microsomes, 0.4 mg/ml protein, 1 µM, replicate n=1): 27.95 µL/min/mg | Calculated CLint, app (µl/min/mg), n=2 ([1]; mouse liver microsomes, 0.4 mg/ml protein, 1 µM, replicate n=2): 30.63 µL/min/mg | Modified T-half (min), Average ([1]; mouse liver microsomes, 0.4 mg/ml, 1 µM, average, limited to T Half range 3.00 - […]): 59.3 min | Raw data: analyte peak area, T=5 [1, 5]: 17080 | Raw data: analyte peak area, T=5 [1, 6]: 16757 | Raw data: analyte peak area, T=10 [1, 5]: 15901 | Raw data: analyte peak area, T=10 [1, 6]: 17016 | Raw data: analyte peak area, T=20 [1, 5]: 13027 | Raw data: analyte peak area, T=20 [1, 6]: 13336 | Raw data: analyte peak area, T=30 [1, 5]: 11583 | Raw data: analyte peak area, T=30 [1, 6]: 11936 | Raw data: analyte peak area, T=60 [1, 5]: 10413 | Raw data: analyte peak area, T=60 [1, 6]: 8808 | remaining at 1 h, 1 µM ([2]; n=1): 98.3% | remaining at 1 h, 1 µM ([2]; n=2): 88.5% | microsomal CLint at 1 μM ([3]; pH 7.4): 27.9 µL/min/mg | remaining at 5 min, 1 μM [3, 7]: 94% | remaining at 5 min, 1 μM [3, 8]: 89.2% | microsomal CLint at 1 μM ([3]; pH 7.4, Calculated CLint, app (µl/min/mg), Average, mouse liver microsomes, 0.4 mg/ml protein, 1 µM): 29.3 µL/min/mg | microsomal CLint at 1 μM ([3]; pH 7.4, Calculated CLint, app (µl/min/mg), n=1, mouse liver microsomes, 0.4 mg/ml protein, 1 µM, replicate n=1): 27.9 µL/min/mg | microsomal CLint at 1 μM ([3]; pH 7.4, Calculated CLint, app (µl/min/mg), n=2, mouse liver microsomes, 0.4 mg/ml protein, 1 µM, replicate n=2): 30.6 µL/min/mg | remaining at 10 min, 1 µM [3, 7]: 86.6% | remaining at 10 min, 1 µM [3, 8]: 87% | remaining at 20 min, 1 µM [3, 7]: 79.5% | remaining at 20 min, 1 µM [3, 8]: 79% | remaining at 0.5 h, 1 µM [3, 7]: 62% | remaining at 0.5 h, 1 µM [3, 8]: 63% | remaining at 1 h, 1 µM [3, 7]: 52.3% | remaining at 1 h, 1 µM [3, 8]: 47.8% | Raw data: analyte peak area, T=60 NCF ([4]; replicate 1 (left block)): 17862 | Raw data: analyte peak area, T=60 NCF ([4]; replicate 2 (right block)): 19654
